The assay concerns T. cruzi Tulahuen in NIH-3T3, beta-gal fluorescence, 4 d. In words: T. cruzi intracellular growth inhibition, cell-based (AID 1159559).

The source made the active and inactive calls.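 The calls were made as follows: active = compounds whose IC50 against parasite growth in infected mouse cells is below 50000 nM; inactive = the rest.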

By IC50 is commonly meant the concentration at which inhibition is half-maximal. Regarding `CC(CNS(=O)(=O)c1ccc(OC(F)F)cc1)c1ccc(NC(=O)c2ccncc2)cc1` (stereo not drawn), the IC50 was 0.2 µM. `CC(C)c1cc(C(=O)N2CCCC(c3cc4ncccc4[nH]3)C2)on1` (stereo not drawn): the IC50 was 2 µM. Regarding `NC(=O)c1ccccc1Nc1nc(NC2CCCCC2)nc2[nH]ccc12`, the IC50 was 1 µM. Regarding `CN(C)c1ccc(N)cc1CN(CC1CCCO1)S(C)(=O)=O` (stereo not drawn), the IC50 was > 50 µM (inactive). For `CCN(CC)c1ccc(S(=O)(=O)N(CC)CC)c2nonc12`, the IC50 is 25 µM. On to `CCCCn1nnnc1CSc1nc(C)cc(C)c1C#N`, for which the IC50 is 0.32 µM. Then `Cc1cc(=O)n2nc(Oc3ccc(C#N)cc3Cl)sc2n1`, with 16 µM; and `CC(CCc1ccccc1)NC(=O)CN(Cc1ccccn1)Cc1ccccn1` (stereo not drawn), with 2.5 µM; and `O=c1cc(NCCCNCc2cc(C(F)(F)F)cs2)[nH]c2ccccc12`, with 7.9 µM. In the case of `CS(=O)(=O)c1ccc(Nc2nccc(Nc3n[nH]c4ccc(F)cc34)n2)c(F)c1` it was 7.9 µM. As to `Cc1ccccc1CNc1cc(C2CC2)nc(-c2nccn2C)n1`, the IC50 is 0.79 µM.

For `COc1ccc(Nc2nc(-c3ccccn3)cs2)c(OC)c1`, the IC50 was 4 µM. On to `c1ccc(Nc2nc(-c3ccccn3)cc(N3CCOCC3)n2)cc1`, for which the IC50 was 2 µM.

Turning to `CN1C(=O)c2ccccc2Sc2ccc(NC(=O)NCc3ccco3)cc21`, the half-inhibitory concentration (IC50) was 10 µM. `CC1CCCCN1C(=O)NCCc1coc(-c2ccc(F)cc2)n1` (stereo not drawn): the IC50 is 0.4 µM. Take `CCS(=O)(=O)Nc1ccc(C2=NN(C(=O)c3cccs3)C(c3ccccc3OC)C2)cc1` (stereo not drawn): the IC50 was 7.9 µM. Turning to `N#Cc1cccc(CN2CCC(N(Cc3cccnc3)C(=O)c3cc(F)c(F)cc3F)CC2)c1`, the IC50 was 0.4 µM. Then `O=C(CN(c1cccc(C(F)(F)F)c1)S(=O)(=O)c1ccc(Cl)cc1)NCc1ccc(F)c(F)c1`, with 0.79 µM; and `O=C(N1CCc2ccccc2CC1)C1(C(=O)N2CCC(n3c(=O)[nH]c4ncccc43)CC2)CC1`, with 0.63 µM; and `CCN(CC)c1ncc(C(=O)c2ccc([N+](=O)[O-])o2)s1`, with 4 µM. For the molecule `Cc1cc(Oc2cc(Cl)c(Cl)cc2Cl)n2ncnc2n1`, the IC50 is 5 µM. Turning to `CCc1c(C)nc(-n2nc(C)cc2NC(=O)COc2ccccc2F)[nH]c1=O`, the concentration for half-maximal inhibition (IC50) was 0.63 µM.

With `CC(C)c1cc(Nc2cc(Cc3ccccc3)nc(NC3CCC(O)CC3)n2)n[nH]1` (stereo not drawn), the half-inhibitory concentration (IC50) is 0.079 µM. As for `O=C(Cn1cnc2cc([N+](=O)[O-])ccc2c1=O)NCCc1ccc(Cl)cc1Cl`, the IC50 is 0.63 µM. Then `COc1cc2c(cc1OC)[C@H]1[C@@H](C)c3ccc(OC)c(OC)c3CN1CC2`, with 25 µM.

On to `O=C(Nc1ccccc1C(=O)Nc1ccccn1)c1ccco1`, for which the IC50 is > 50 µM (inactive). With `CN(C)Cc1ccc(-c2ccc(S(=O)(=O)NCC3CCCO3)c(F)c2)cc1` (stereo not drawn), the half-maximal inhibitory concentration (IC50) is 1.3 µM. On to `CNc1nc(C)nc(N2CCc3cc(C(=O)NCc4ccc(-c5nccn5C)cc4Cl)ccc32)n1`, for which the IC50 was 5 µM. Then `CCNc1cc(-c2ccccn2)nc(Nc2ccccc2)n1`, with 0.79 µM; and `Cc1ccc2onc(Nc3ccnc(Nc4cccc(S(C)(=O)=O)c4)n3)c2c1`, with 4 µM.

For the molecule `CNc1c(C(N)=O)c(-c2ccc3scnc3c2)nn1CC(F)(F)F`, the IC50 is 0.13 µM. As to `CNc1cc(Cn2c(C(=O)c3cc(C)cc(Cl)c3)c(C(C)C)c(=O)[nH]c2=O)ccn1`, the half-inhibitory concentration (IC50) was 0.04 µM. Consider `OCCCNc1nc(Nc2ccncc2)nc2ccccc12`, for which the IC50 was 0.63 µM. On to `CC(=O)Nc1ccc(-c2noc(CC3CCCN(Cc4cccc(F)c4C)C3)n2)cc1` (stereo not drawn), for which the IC50 is 1 µM. Turning to `FC(F)(F)c1cc(C2CCCN(Cc3c[nH]c4ccccc34)C2)nc2ncnn12` (stereo not drawn), the IC50 was 1.6 µM. In the case of `CCOc1ccccc1C(=O)Nc1nnc(-c2ccc3c(c2)OCO3)s1`, the IC50 was 0.63 µM.

For `COc1ccc(S(=O)(=O)NC(C)C)cc1Nc1ncc(-c2cccc(F)c2)cn1`, the IC50 is 0.63 µM. Consider `Cc1ccccc1OCC(=O)N1CCCN(c2cccnn2)CC1`, for which the IC50 was 0.32 µM.

For the origin of these results see PubChem BioAssay AID1159559 (GlaxoSmithKline (GSK), 2015).
